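Method: 48-hour compound exposure of cells in 96-well plates, five concentrations, linear interpolation of endpoints. TGI marks complete inhibition of growth.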
Columns and labels:
Experiment in all cases: inhibition of tumour cell growth, NCI panel, 48 h
[1] = tested on: SNB-19 CNS
[2] = tested on: 786-0 renal
[3] = tested on: OVCAR-4 ovarian
[4] = tested on: A549 NSCLC
[5] = tested on: COLO 205 colon
[6] = tested on: KM12 colon
[7] = tested on: U251 CNS
[8] = tested on: MOLT-4 leukemia
[9] = tested on: MDA-N
[10] = tested on: CAKI-1 renal
[11] = tested on: RXF 393 renal
[12] = tested on: SK-MEL-5 melanoma
[13] = tested on: SF-295 CNS
[14] = tested on: EKVX NSCLC
[15] = tested on: DU-145 prostate
[16] = tested on: SK-MEL-2 melanoma
[17] = tested on: SF-539 CNS
[18] = tested on: UACC-62 melanoma
[19] = tested on: SNB-75 CNS
[20] = tested on: SN12C renal
[21] = tested on: NCI-H226 lung
[22] = tested on: NCI-H460 lung
[23] = tested on: IGROV1 ovarian
[24] = tested on: ACHN renal
[25] = tested on: HOP-92 NSCLC
[26] = tested on: NCI-H23 lung
[27] = tested on: RPMI-8226 leukemia
[28] = tested on: T-47D breast
[29] = tested on: MDA-MB-435
[30] = tested on: HS 578T breast
[31] = tested on: MDA-MB-231 breast
[32] = tested on: UACC-257 melanoma
[33] = tested on: TK-10 renal
[34] = tested on: M14 melanoma
[35] = tested on: K-562 leukemia
[36] = tested on: SW-620 colon
[37] = tested on: A498 renal
[38] = tested on: HT29 colon
[39] = tested on: NCI/ADR-RES ovarian
[40] = tested on: SR leukemia
[41] = tested on: UO-31 renal
[42] = tested on: SF-268 CNS
[43] = tested on: LOX IMVI melanoma
[44] = tested on: OVCAR-5 ovarian
[45] = tested on: PC-3 prostate
[46] = tested on: CCRF-CEM leukemia
[47] = tested on: OVCAR-8 ovarian
[48] = tested on: HCT-116 colon
[49] = tested on: MCF7 breast
[50] = tested on: HCT-15 colon
[51] = tested on: SK-MEL-28 melanoma
[52] = tested on: SK-OV-3 ovarian
[53] = tested on: OVCAR-3 ovarian
[54] = tested on: HOP-62 NSCLC
[55] = tested on: HL-60(TB) leukemia
[56] = tested on: BT-549 breast
[57] = tested on: HCC-2998 colon
[58] = tested on: MALME-3M melanoma
[59] = tested on: NCI-H522 lung

## N=C(N)SCCc1ccncc1
[1]
  TGI: > 100 µM
[2]
  TGI: > 100 µM
[3]
  TGI: > 100 µM
[4]
  TGI: > 100 µM
[5]
  TGI: > 100 µM
[6]
  TGI: > 100 µM
[7]
  TGI: > 100 µM
[8]
  TGI: > 100 µM
[9]
  TGI: > 100 µM
[10]
  TGI: > 100 µM
[11]
  TGI: > 100 µM
[12]
  TGI: > 100 µM
[13]
  TGI: > 100 µM
[14]
  TGI: > 100 µM
[15]
  TGI: > 100 µM
[16]
  TGI: > 100 µM
[17]
  TGI: > 100 µM
[18]
  TGI: > 100 µM
[19]
  TGI: > 100 µM
[20]
  TGI: > 100 µM
[21]
  TGI: > 100 µM
[22]
  TGI: > 100 µM
[23]
  TGI: > 100 µM
[24]
  TGI: > 100 µM
[25]
  TGI: > 100 µM
[26]
  TGI: > 100 µM
[27]
  TGI: > 100 µM
[28]
  TGI: > 100 µM
[29]
  TGI: > 100 µM
[30]
  TGI: > 100 µM
[31]
  TGI: > 100 µM
[32]
  TGI: > 100 µM
[33]
  TGI: > 100 µM
[34]
  TGI: > 100 µM
[35]
  TGI: > 100 µM
[36]
  TGI: > 100 µM
[37]
  TGI: > 100 µM
[38]
  TGI: > 100 µM
[39]
  TGI: > 100 µM
[40]
  TGI: > 100 µM
[41]
  TGI: > 100 µM
[42]
  TGI: > 100 µM
[43]
  TGI: > 100 µM
[44]
  TGI: > 100 µM
[45]
  TGI: > 100 µM
[46]
  TGI: > 100 µM
[47]
  TGI: > 100 µM
[48]
  TGI: > 100 µM
[49]
  TGI: > 100 µM
[50]
  TGI: > 100 µM
[51]
  TGI: > 100 µM
[52]
  TGI: > 100 µM
[53]
  TGI: > 100 µM
[54]
  TGI: > 100 µM
[55]
  TGI: > 100 µM
[56]
  TGI: > 100 µM

## COC(=O)C1CC2C=CC1N(C(=O)OCc1ccccc1)C2 (centres undefined)
[1]
  TGI: > 100 µM
[2]
  TGI: > 100 µM
[3]
  TGI: > 100 µM
[4]
  TGI: > 100 µM
[5]
  TGI: > 100 µM
[6]
  TGI: > 100 µM
[57]
  TGI: > 100 µM
[7]
  TGI: > 100 µM
[8]
  TGI: > 100 µM
[9]
  TGI: > 100 µM
[10]
  TGI: > 100 µM
[11]
  TGI: > 100 µM
[12]
  TGI: > 100 µM
[13]
  TGI: > 100 µM
[14]
  TGI: > 100 µM
[15]
  TGI: > 100 µM
[58]
  TGI: > 100 µM
[16]
  TGI: > 100 µM
[17]
  TGI: > 100 µM
[18]
  TGI: > 100 µM
[19]
  TGI: > 100 µM
[20]
  TGI: > 100 µM
[21]
  TGI: > 100 µM
[22]
  TGI: > 100 µM
[23]
  TGI: > 100 µM
[24]
  TGI: > 100 µM
[26]
  TGI: > 100 µM
[27]
  TGI: > 100 µM
[28]
  TGI: > 100 µM
[29]
  TGI: > 100 µM
[30]
  TGI: > 100 µM
[31]
  TGI: > 100 µM
[32]
  TGI: > 100 µM
[33]
  TGI: > 100 µM
[34]
  TGI: > 100 µM
[35]
  TGI: > 100 µM
[36]
  TGI: > 100 µM
[37]
  TGI: > 100 µM
[38]
  TGI: > 100 µM
[39]
  TGI: > 100 µM
[40]
  TGI: > 100 µM
[41]
  TGI: > 100 µM
[59]
  TGI: 43.5 µM
[42]
  TGI: > 100 µM
[43]
  TGI: > 100 µM
[44]
  TGI: > 100 µM
[45]
  TGI: > 100 µM
[46]
  TGI: > 100 µM
[47]
  TGI: > 100 µM
[48]
  TGI: > 100 µM
[49]
  TGI: > 100 µM
[50]
  TGI: > 100 µM
[51]
  TGI: > 100 µM
[52]
  TGI: > 100 µM
[53]
  TGI: > 100 µM
[54]
  TGI: > 100 µM
[55]
  TGI: > 100 µM
[56]
  TGI: > 100 µM

## CC1CCC2(NC1)OC1CC3C4CCC5CC(OC6OC(CO)C(OC7OC(CO)C(O)C(OC8OCC(O)C(O)C8O)C7OC7OC(CO)C(O)C(O)C7O)C(O)C6O)CCC5(C)C4CCC3(C)C1C2C (centres undefined)
[1]
  TGI: 3.38 µM
[3]
  TGI: 3.1 µM
[4]
  TGI: 4.99 µM
[5]
  TGI: 4 µM
[6]
  TGI: 4.64 µM
[57]
  TGI: 2.78 µM
[7]
  TGI: 3.07 µM
[9]
  TGI: 1.02 µM
[10]
  TGI: 2.11 µM
[12]
  TGI: 3.56 µM
[13]
  TGI: 2.32 µM
[14]
  TGI: 2.37 µM
[15]
  TGI: 3.46 µM
[58]
  TGI: 2.83 µM
[16]
  TGI: 3.75 µM
[18]
  TGI: 2.65 µM
[19]
  TGI: 3.56 µM
[20]
  TGI: 3.32 µM
[21]
  TGI: 3.72 µM
[22]
  TGI: 4.16 µM
[23]
  TGI: 1.86 µM
[24]
  TGI: 4.82 µM
[27]
  TGI: 4.01 µM
[28]
  TGI: 5.07 µM
[29]
  TGI: 3.03 µM
[30]
  TGI: 3.85 µM
[31]
  TGI: 3.4 µM
[32]
  TGI: 4.65 µM
[33]
  TGI: 3.4 µM
[34]
  TGI: 3.02 µM
[35]
  TGI: > 21.2 µM
[36]
  TGI: 3.94 µM
[37]
  TGI: 3.75 µM
[38]
  TGI: 3.26 µM
[39]
  TGI: 3.93 µM
[40]
  TGI: > 100 µM
[41]
  TGI: 2.69 µM
[59]
  TGI: 3.12 µM
[42]
  TGI: 3.32 µM
[43]
  TGI: > 100 µM
[44]
  TGI: 2.73 µM
[45]
  TGI: 1.05 µM
[46]
  TGI: > 22 µM
[48]
  TGI: 6.98 µM
[49]
  TGI: 6.3 µM
[51]
  TGI: 3.46 µM
[53]
  TGI: 3.12 µM
[54]
  TGI: 3.68 µM
[55]
  TGI: 4.93 µM
[56]
  TGI: 5.97 µM
